Measured values taken from patent US4190675A (priority 1976, dated 1980).
≈ marks a conversion by molar mass, not a printed value. Entries after “also recorded” stand apart in the source; their conditions may differ. Like-named read-outs stand apart in the source and are kept apart here.

Key:
rats [1] = assay: Turpentine-induced pleuritis in rats (Hurley); assay type: in vivo; settings: for Exudate / Inhibition: P <0.01
Staphylococcus aureus = assay: Antibacterial activity (MIC), Staphylococcus aureus; assay type: cell-based; settings: for antibacterial activity, grade (in words): Gram-positive germs / overall; for antibacterial activity compared with Fraction 2 and sobrerol (in words): Staphylococcus aureus and Escherichia coli; for MIC: read-out: Minimum Inhibiting Concentration (MIC)
rats [2] = assay: Carrageenin-induced paw oedema in rats (Winter); assay type: in vivo, albino rats, COBS (Charles River) stock; settings: for % inhibition of plantar oedema: after 4 hours, 6 animals; for anti-inflammatory action, grade (in words): overall summary
thrombocyte aggregation = assay: Inhibition of thrombocyte aggregation from ADP in vitro (Born and Cross); assay type: cell-based; settings: for inhibition of thrombocyte aggregation compared with Fraction 2 and sobrerol (in words): 160 to 1,280 micrograms/ml, ADP, in vitro; for inhibition at 160 µg/mL: final concentration 160 μg/ml; for inhibition at 160 µg/mL / inhibition at 320 µg/mL / inhibition at 640 µg/mL / inhibition at 1280 µg/mL: average of repeated tests; for inhibition at 320 µg/mL: final concentration 320 μg/ml; for inhibition at 640 µg/mL: final concentration 640 μg/ml; for inhibition at 1280 µg/mL: final concentration 1280 μg/ml
rabbits [3] = assay: Inhibition of histamine-induced bronchospasm by intravenous perfusion in rabbits; assay type: in vivo; settings: for Percentage of inhibition of the histamine-induced bronchospasm: histamine 100 micrograms/kg i.v., average of 4 animals
red blood cells of rats = assay: Protection of red blood cells from haemolysis induced by Tween 80, in vitro; assay type: cell-based; settings: for EC50: Rattus norvegicus, Erythrocyte, Tween 80
From the text: (fiducial limits 95% : 518.0-760.11).

[4] = system: isolated Guinea-pig trachea; assay: Relaxation of the isolated Guinea-pig trachea (Costantine); assay type: cell-based; settings: for activation at 125 µg/mL: 125 μg/ml; for activation at 125 µg/mL / activation at 500 µg/mL / activation at 2000 µg/mL: average of 4 preparations; for activation at 500 µg/mL: 500 μg/ml; for activation at 2000 µg/mL: 2,000 μg/ml; for relaxation of the smooth tracheal muscles, intensity compared with Fraction 2 and sobrerol (in words): in vitro, isolated Guinea-pig trachea; for bronchodilating activity, grade (in words): overall, in vitro and in vivo
Escherichia coli = assay: Antibacterial activity (MIC), Escherichia coli; assay type: cell-based; settings: for MIC: read-out: Minimum Inhibiting Concentration (MIC); for antibacterial activity, grade (in words): Gram-negative germs
[5] = Acute toxicity in rats (LD50, Litchfield and Wilcoxon); settings: rat, in vivo, iv, intravenously
[6] = system: isolated Guinea-pig trachea; assay: Inhibition of histamine-induced contractions of the isolated Guinea-pig trachea; assay type: cell-based; settings: histamine 10^-5 M, average
From the text: In addition, at concentrations in the range of from 10^-3 M to 5.10^-3 M, it inhibits the histamine-induced contractions of the isolated Guinea-pig trachea (Histamine 10^-5 M, see TABLE 3).

[7] = Acute toxicity in rabbits (LD50, Litchfield and Wilcoxon); assay type: in vivo; settings: rabbit, in vivo, fiducial limits 95%
rabbits [8] = assay: as above; assay type: in vivo
in vivo = settings: mouse, LD50, mice, fiducial limits 95%
mice = settings: for Gleason classification: mice
dogs = assay: Reduction of lung resistance in anesthetized dogs (Diamond); assay type: in vivo; settings: intravenous; for Percentage reduction of the Lung Resistance: average for 4 animals
[9] = 30 mg/kg b.w. intraperitoneally
[10] = intravenous perfusion 15 minutes
[11] = intravenous perfusion 30 minutes
[12] = intravenous perfusion 60 minutes
[13] = perfused intravenously 2.5 mls per kg b.w. per minute
[14] = Cavia porcellus, read-out: Percentage of relaxation of the isolated Guinea-pig trachea
[15] = read-out: Thrombocyte aggregation % INHIBITION

## CC(=O)Oc1ccccc1C(=O)O [Aspirin, aspirin, reference compound]
Rats [1]; 100 mgs/kg intraperitoneal
  Exudate: 1.30 mls.
  Inhibition: 34%

## CC1(C)C2CC=C(C=O)C1C2 (centres unmarked) [Myrtenal, myrtenal]
Staphylococcus aureus
  antibacterial activity, grade (in words): pronounced antibacterial activity on Gram-positive germs
  antibacterial activity compared with Fraction 2 and sobrerol (in words): more active both than Fraction 2 and sobrerol
Staphylococcus aureus; listed as myrtenal
  antibacterial activity, grade (in words): marked antibacterial action
Staphylococcus aureus; Staphylococcus aureus
  MIC: 200 µg/mL (≈ 1.33 mM)
Rats [2]; [9]
  % inhibition of plantar oedema: 30%
Rats [2]
  anti-inflammatory action, grade (in words): anti-inflammatory action of poor magnitude
Rats [2]; rats, 30 mg/kg b.w. intraperitoneally
  inhibition of carrageenin paw oedema compared with Fraction 2 and sobrerol (in words): more intense than that of Fraction 2 and also than that of sobrerol
Thrombocyte aggregation
  inhibition of thrombocyte aggregation compared with Fraction 2 and sobrerol (in words): higher than those of Fraction 2 and sobrerol
  inhibition at 160 µg/mL: 0%
  inhibition at 320 µg/mL: 12%
  inhibition at 640 µg/mL: 20%
  inhibition at 1280 µg/mL: 75%
Rabbits [3]; [10]
  Percentage of inhibition of the histamine-induced bronchospasm: 25.4%
Rabbits [3]; [11]
  Percentage of inhibition of the histamine-induced bronchospasm: 20.4%
Rabbits [3]; [12]
  Percentage of inhibition of the histamine-induced bronchospasm: 28.8%
Rabbits [3]; [13]
  inhibition of histamine-induced bronchospasm compared with Fraction 2 and sobrerol (in words): statistically higher than that of sobrerol and slightly lower than that of Fraction 2
Red blood cells of rats; 80 to 500 micrograms/ml, fiducial limits 95%=112.3-189.9, read-out: Effective Concentration 50%, protection from haemolysis
  EC50: 157 µg/mL (≈ 1.05 mM)
[4]; [14]
  activation at 125 µg/mL: 7.5%
  activation at 500 µg/mL: 47.5%
  activation at 2000 µg/mL: 62.5%
[4]
  relaxation of the smooth tracheal muscles, intensity compared with Fraction 2 and sobrerol (in words): statistically higher than that of the Fraction 2 and that of sobrerol
  bronchodilating activity, grade (in words): fair bronchodilating activity
Escherichia coli; Escherichia coli
  MIC: 800 µg/mL (≈ 5.33 mM)
Escherichia coli
  antibacterial activity, grade (in words): less intense on Gram-negative ones

## C=C1C(O)CC2CC1C2(C)C (centres unmarked) [Pinocarveol, pinocarveol]
Staphylococcus aureus
  antibacterial activity, grade (in words): poor antibacterial activity; also recorded: poor antibacterial action
  antibacterial activity compared with Fraction 2 and sobrerol (in words): more active than sobrerol and as active as Fraction 2
Staphylococcus aureus; Staphylococcus aureus
  MIC: 800 µg/mL (≈ 5.25 mM)
Rats [2]
  anti-inflammatory action, grade (in words): pronounced anti-inflammatory action
Rats [2]; rats, 30 mg/kg intravenously
  inhibition of carrageenin paw oedema compared with Fraction 2 and sobrerol (in words): more intense than those of Fraction 2 and of sobrerol
[5]
  LD50: 140 mg/kg
Thrombocyte aggregation
  inhibition of thrombocyte aggregation compared with Fraction 2 and sobrerol (in words): exceeds that of the terpenes of the Fraction 2 and that of sobrerol
Thrombocyte aggregation; overall summary
  antiaggregative action, grade (in words): conspicuous antiaggregative action
Rabbits [3]; perfused intravenously 2.5 milligrams per kilogram and per minute
  inhibition of histamine-induced bronchospasm compared with Fraction 2 and sobrerol (in words): statistically higher than those of FRACTION 2 and of sobrerol
Red blood cells of rats; 20 to 200 micrograms/ml, fiducial limits 95%=111.5-153.04, read-out: Effective Concentration 50% (EC 50), protection from haemolysis
  EC50: 132 µg/mL (≈ 0.869 mM)
Red blood cells of rats; overall summary
  antihaemolytic activity, grade (in words): pronounced antihaemolytic activity
[4]
  relaxation of the smooth tracheal muscles, intensity compared with Fraction 2 and sobrerol (in words): statistically higher than that of sobrerol and which can be compared to that of Fraction 2
  bronchodilating activity, grade (in words): fair bronchodilating action; also recorded: poor bronchodilating action
Escherichia coli; Escherichia coli
  MIC: 800 µg/mL (≈ 5.25 mM)
Escherichia coli
  antibacterial activity, grade (in words): poor antibacterial activity

## CC1=CCC(C(C)(C)O)CC1O (centres unmarked) [Sobrerol, sobrerol, reference compound]
Staphylococcus aureus; Staphylococcus aureus
  Minimum Inhibiting Concentration (MIC): .infin.
Rats [2]; [9]
  % inhibition of plantar oedema: 11%
Thrombocyte aggregation; [15]
  inhibition at 1000 µg/mL: 4%
  inhibition at 1500 µg/mL: 12%
  inhibition at 2000 µg/mL: 24%
  inhibition at 4000 µg/mL: 32%
Rabbits [3]; [10]
  Percentage of inhibition of the histamine-induced bronchospasm: 2.15%
Rabbits [3]; [11]
  Percentage of inhibition of the histamine-induced bronchospasm: 1.15%
Rabbits [3]; [12]
  Percentage of inhibition of the histamine-induced bronchospasm: 3.97%
[4]; [14]
  percent relaxation of trachea at 125 µg/mL: 1.87%
  percent relaxation of trachea at 500 µg/mL: 5.62%
  percent relaxation of trachea at 2000 µg/mL: 20.8%
Escherichia coli; Escherichia coli
  Minimum Inhibiting Concentration (MIC): .infin.

## CC1=CC(=O)[C@@H]2C[C@H]1C2(C)C [Verbenone, verbenone]
[6]; 5.10^-3 M
  Percentage of inhibition of the histaminic spasm due to relaxation of the smooth tracheal muscles: 96.8%
[6]; Cavia porcellus, 10^-3 M, read-out: Percentage of inhibition of the histaminic spasm due to relaxation of the smooth tracheal muscles
  inhibition at 1000 µM: 29.2%
[7]; ip, female
  LD50: 232 mg/kg
[7]; ip, male
  LD50: 310 mg/kg
[7]; po, female
  LD50: 655 mg/kg
[7]; po, male
  LD50: 790 mg/kg
Rabbits [8]; i.p.
  Gleason classification: Poor
Rabbits [8]; p.o.
  Gleason classification: Poor
Staphylococcus aureus
  antibacterial activity, grade (in words): poor antibacterial activity
  antibacterial activity compared with Fraction 2 and sobrerol (in words): as active as Fraction 2 and more active than sobrerol
Staphylococcus aureus; Staphylococcus aureus
  MIC: 800 µg/mL (≈ 5.33 mM)
In vivo; ip, female
  LD50: 325 mg/kg
In vivo; ip, male
  LD50: 361 mg/kg
In vivo; po, female
  LD50: 1530 mg/kg
In vivo; po, male
  LD50: 1410 mg/kg
Rats [2]; [9]
  % inhibition of plantar oedema: 29%
Rats [2]; normal and suprarenalectomized rats, 30 mg/kg b.w. intraperitoneally
  inhibition of carrageenin paw oedema compared with Fraction 2 and sobrerol (in words): significantly improved over those of the fraction 2 and of sobrerol
Thrombocyte aggregation
  inhibition of thrombocyte aggregation compared with Fraction 2 and sobrerol (in words): higher than that of the terpenes of the Fraction 2 and of sobrerol
  inhibition at 160 µg/mL: 0%
  inhibition at 320 µg/mL: 6%
  inhibition at 640 µg/mL: 44%
  inhibition at 1280 µg/mL: 100%
Rats [1]; 36 and 120 mg/kg b.w. intraperitoneally
  antiexudative activity compared with aspirin (in words): intense antiexudative activity in the experimental, turpentine-induced pleuritis (Hurley, J. V. et al., J. Path., 91, 575,1966) to a degree which can be compared to that of aspirin
Rats [1]; 36 mgs/kg intraperitoneal
  Exudate: 1.23 mls.
  Inhibition: 37.6%
Rats [1]; 120 mgs/kg intraperitoneal
  Exudate: 0.97 mls.
  Inhibition: 50.1%
Rabbits [3]; [10]
  Percentage of inhibition of the histamine-induced bronchospasm: 36.25%
Rabbits [3]; [11]
  Percentage of inhibition of the histamine-induced bronchospasm: 46.27%
Rabbits [3]; [12]
  Percentage of inhibition of the histamine-induced bronchospasm: 73.32%
Rabbits [3]; [13]
  inhibition of histamine-induced bronchospasm compared with Fraction 2 and sobrerol (in words): statistically higher than that of the terpenes of the fraction 2 and also than that of sobrerol
Red blood cells of rats; fiducial limits 95%: 518.0-760.11, read-out: effective concentration 50% (EC 50), protection from haemolysis
  EC50: 640 µg/mL (≈ 4.26 mM)
[4]; [14]
  activation at 125 µg/mL: 26.2%
  activation at 500 µg/mL: 61.2%
  activation at 2000 µg/mL: 71.4%
[4]
  relaxation of the smooth tracheal muscles, intensity compared with Fraction 2 and sobrerol (in words): significantly higher than that of the terpenes of the fraction 2 and also than that of sobrerol
  bronchodilating activity, grade (in words): pronounced bronchodilating action; also recorded: pronounced bronchodilating activity
mice; mice and rabbits, i.p. and p.o.
  tolerability on the basis of acute toxicity data: well tolerated
mice; i.p.
  Gleason classification: Poor
mice; p.o.
  Gleason classification: Slight
dogs; 0.6 mgs/kg b.w.
  Percentage reduction of the Lung Resistance: 7.175%
dogs; 0.6 to 4.8 mgs/kg b.w.
  reduction of the lung resistances (in words): pronounced reduction of the lung resistances
dogs; 1.2 mgs/kg b.w.
  Percentage reduction of the Lung Resistance: 10.85%
dogs; 2.4 mgs/kg b.w.
  Percentage reduction of the Lung Resistance: 22.225%
dogs; 4.8 mgs/kg b.w.
  Percentage reduction of the Lung Resistance: 30.6%
Escherichia coli; Escherichia coli
  MIC: 800 µg/mL (≈ 5.33 mM)
Escherichia coli
  antibacterial activity, grade (in words): poor antibacterial activity
